Reference: patent US20240301319A1, “PERFUMING COMPOSITIONS” (FIRMNICH SA, priority 2017, published 2024)
Values joined by “and” are separate entries in the source; they are usually repeats but may differ in a detail not shown here. Equal values may be shown once. Where a name gives a salt, the structure may show the parent alone.

Legend:
[1] = Volatility of perfuming compounds (Tables 4 to 10), with top/middle/bottom note type; type: physicochemical
Summary of the method: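 Volatility is expressed in μg/l in air. Top notes are 70,000 to 100 μg/l, middle notes 99 to 50 μg/l, and bottom notes 49 to 0.1 μg/l. Compounds are grouped by olfactive family: watery, green, fruity, citrus, sweet, gourmand and woody.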

[2] = Odor threshold and odor value of perfuming compounds (Tables 4 to 10)
[3] = Log P (n-octanol/water) of perfuming compounds (Tables 4 to 10)
[4] = Table 6, perfuming compounds having a fruity note
[5] = Table 6, perfuming compounds having a fruity note, note type by volatility
[6] = Table 7, citrus note, top, middle or bottom note
[7] = Table 7, citrus note, equals volatility divided by odor threshold
[8] = note type (Top/Middle/Bottom) by volatility, perfuming compounds having a green note
[9] = perfuming compounds having a green note
[10] = n-octanol/water, perfuming compounds having a green note
[11] = Table 8, perfuming compounds having a sweet note
[12] = Table 8, perfuming compounds having a sweet note, note type by volatility
[13] = Table 4, watery note, top, middle or bottom note
[14] = Table 4, watery note, equals volatility divided by odor threshold

Compound | Volatility [1, 4] [μg/l air] | Type [1, 5] | Log P (n-octanol/water) [3, 4] | Type [1, 8] | Volatility (μg/l air) [1, 9] [μg/l air] | Odor Threshold (μg/l air) [2, 9] [μg/l air] | Log P (n-octanol/water) [3, 10] | other results
C=C(C)C1CC=C(C)CC1 (single isomer, unassigned; (+)) [(+)-LIMONENE] | 10216.93 | TOP (perfuming compounds having a volatility ranging from 70,000 to 100 μg/l in air are referred to as “top notes”) | 5.40 |  |  |  |  | Volatility (μg/l air) ([1]; Table 7, citrus note): 10216.93 μg/l air; Type [1, 6]: Top; Odor Threshold (μg/l air) ([2]; Table 7, citrus note): 1.29E−01 μg/l air; Odor Value [2, 7]: 7.92E+04; Log P (n-octanol/water) ([3]; Table 7, citrus note): 5.40
CCCCCCCCCCO [1-DECANOL] |  |  |  | Bottom | 31.90 | 1.13E−02 | 4.10 | 
COc1ccc(CCC(C)=O)cc1 [4-(4-METHOXYPHENYL)-2-BUTANONE] | 5.58 | Bottom | 2.06 |  |  |  |  | Volatility [1, 11]: 5.58 μg/l air; Type [1, 12]: Bottom; Volatility ([1]; Table 9, gourmand note): 5.58 μg/l air; Type ([1]; Table 9, perfuming compounds having a gourmand note, note type by volatility): Bottom; Odor Threshold [2, 4]: 5.88E−06 μg/l air; Odor Value [2, 4]: 9.49E+05; Odor Threshold [2, 11]: 5.88E−06 μg/l air; Odor Value [2, 11]: 9.49E+05; Odor Threshold ([2]; Table 9, gourmand note): 5.88E−06 μg/l air; Log P (n-octanol/water) [3, 11]: 2.06; Log P (n-octanol/water) ([3]; Table 9, gourmand note): 2.06
C=CCOC(=O)COc1ccccc1 [ALLYL PHENOXYACETATE] | 9.94 | Bottom | 2.04 | Bottom | 9.94 | 1.22E−03 | 2.04 | Odor Threshold [2, 4]: 1.22E−03 μg/l air; Odor Value [2, 4]: 8.13E+03
CC/C=C\CCOC(=O)C(C)CC (racemic) [(+−)-(Z)-3-HEXENYL 2-METHYLBUTANOATE] | 833.05 | TOP (perfuming compounds having a volatility ranging from 70,000 to 100 μg/l in air are referred to as “top notes”) | 3.84 | Top | 833.05 | 1.96E−02 | 3.84 | 
SCc1ccco1 [2-FURANMETHANETHIOL] |  |  |  |  |  |  |  | Volatility [1, 11]: 29677.31 μg/l air; Type [1, 12]: Top; Odor Threshold [2, 11]: 1.43E−09 μg/l air; Odor Value [2, 11]: 2.08E+13; Log P (n-octanol/water) [3, 11]: 1.70
CC(C)CC(=O)OCc1ccccc1 [BENZYL 3-METHYLBUTANOATE] | 63.56 | Middle | 3.45 |  |  |  |  | Volatility [1, 11]: 63.56 μg/l air; Type [1, 12]: Middle; Odor Threshold [2, 4]: 7.31E−03 μg/l air; Odor Value [2, 4]: 8.70E+03; Odor Threshold [2, 11]: 7.31E−03 μg/l air; Odor Value [2, 11]: 8.70E+03; Log P (n-octanol/water) [3, 11]: 3.45
COC(OC)C(C)c1ccccc1 (stereo not drawn) [1,1-DIMETHOXY-2-PHENYLPROPANE] |  |  |  | Top | 376.94 | 1.42E−02 | 2.50 | 
O=COCc1ccccc1 [BENZYL FORMATE] |  |  |  | Top | 1339.53 | 3.23E−01 | 1.76 | 
COC(=O)OC1CC/C=C\CCC1 (racemic) |  |  |  | Top | 278.83 | 3.69E−04 | 3.02 | 
CCC(C)C(=O)OCCc1ccccc1 (racemic) [(+−)-2-PHENYLETHYL 2-METHYLBUTANOATE] | 37.73 | Bottom | 3.64 |  |  |  |  | Odor Threshold [2, 4]: 8.56E−03 μg/l air; Odor Value [2, 4]: 4.41E+03
Cc1ccc(OCC=O)cc1 |  |  |  | Middle | 89.41 | 6.46E−05 | 1.99 | 
C=CC(CCCCC)OC(C)=O (racemic) [(+−)-1-PENTYL-2-PROPENYL ACETATE] | 1506.95 | TOP (perfuming compounds having a volatility ranging from 70,000 to 100 μg/l in air are referred to as “top notes”) | 3.79 |  |  |  |  | 
c1ccc(CCCc2ccccn2)cc1 [2-(3-PHENYLPROPYL)PYRIDINE] |  |  |  | Bottom | 3.83 | 1.29E−06 | 2.87 | 
CCCC(C)C(=O)OCC (racemic) [(+−)-ETHYL 2-METHYLPENTANOATE] | 35090.18 | TOP (perfuming compounds having a volatility ranging from 70,000 to 100 μg/l in air are referred to as “top notes”) | 3.05 | Top | 35090.18 | 3.84E−05 | 3.05 | 
Cc1ccc2c(c1)OCC(=O)CO2 [7-methyl-2H-1,5-benzodioxepin-3(4H)-one] |  |  |  |  |  |  | 3.40 and 3.53 | 
CC(OC=O)C1CCCC(C)(C)C1 (stereo not drawn) | 1129.46 | TOP (perfuming compounds having a volatility ranging from 70,000 to 100 μg/l in air are referred to as “top notes”) | 4.01 |  |  |  |  | 
C=C(C)CC(C(C)=O)C(=O)OCC (racemic) | 295.22 | TOP (perfuming compounds having a volatility ranging from 70,000 to 100 μg/l in air are referred to as “top notes”) |  | Top | 295.22 | 3.64E−03 |  | 
cis-4-(2-methyl-2-propanyl)cyclohexyl acetate (A) + trans-4-(2-methyl-2-propanyl)cyclohexyl acetate (B) |  |  |  |  |  |  |  | Volatility (μg/l air) ([1]; Table 7, citrus note): 291.85 μg/l air; Type [1, 6]: Top; Odor Threshold (μg/l air) ([2]; Table 7, citrus note): 5.43E−02 μg/l air; Odor Value [2, 7]: 5.37E+03
CC(CC=O)CCCC(C)(C)O (racemic) [(+−)-7-hydroxy-3,7-dimethyloctanal] |  |  |  |  |  |  |  | Volatility (μg/l air) ([1]; Table 4, watery note): 12.81 μg/l air; Type [1, 13]: bottom (perfuming compounds having a volatility ranging from 49 to 0.1 μg/l in air are referred to as “bottom notes”); Odor Threshold (μg/l air) ([2]; Table 4, watery note): 6.98E−03 μg/l air; Odor Value [2, 14]: 1.84E+03
CC(=O)OC/C=C(/C)CCC=C(C)C [(2Z)-3,7-dimethyl-2,6-octadien-1-yl acetate] | 123.21 | TOP (perfuming compounds having a volatility ranging from 70,000 to 100 μg/l in air are referred to as “top notes”) |  |  |  |  |  | Volatility (μg/l air) ([1]; Table 4, watery note): 123.21 μg/l air; Type [1, 13]: TOP (perfuming compounds having a volatility ranging from 70,000 to 100 μg/l in air are referred to as “top notes”); Odor Threshold (μg/l air) ([2]; Table 4, watery note): 6.02E−02 μg/l air; Odor Value [2, 14]: 2.05E+03; Odor Threshold [2, 4]: 6.02E−02 μg/l air; Odor Value [2, 4]: 2.05E+03
C=CC(C)(O)CCC=C(C)C (racemic) [(+−)-3,7-dimethyl-1,6-octadien-3-ol] | 896.72 | TOP (perfuming compounds having a volatility ranging from 70,000 to 100 μg/l in air are referred to as “top notes”) |  |  |  |  |  | Volatility (μg/l air) ([1]; Table 7, citrus note): 896.72 μg/l air; Type [1, 6]: Top; Odor Threshold (μg/l air) ([2]; Table 7, citrus note): 8.89E−05 μg/l air; Odor Value [2, 7]: 1.01E+07
CC(O)c1ccccc1 (stereo not drawn) [1-PHENYL-1-ETHANOL] | 470.00 | TOP (perfuming compounds having a volatility ranging from 70,000 to 100 μg/l in air are referred to as “top notes”) | 1.42 |  |  |  |  | 
